Assay results: ChEMBL document CHEMBL1155395, “Discovery of substituted biphenyl imidazoles as potent, bioavailable bombesin receptor subtype-3 agonists” (Bioorg Med Chem Lett, 2010)

Key:
Format in all cases: functional, cell-based
[1] = biological target: T1, Bombesin receptor subtype-3 (Homo sapiens, UniProt P32247); test: Agonistic activity at human BRS3 expressed in HEK293AEO cells by aequorin bioluminescence assay
T1 sequence (P32247 whole entry): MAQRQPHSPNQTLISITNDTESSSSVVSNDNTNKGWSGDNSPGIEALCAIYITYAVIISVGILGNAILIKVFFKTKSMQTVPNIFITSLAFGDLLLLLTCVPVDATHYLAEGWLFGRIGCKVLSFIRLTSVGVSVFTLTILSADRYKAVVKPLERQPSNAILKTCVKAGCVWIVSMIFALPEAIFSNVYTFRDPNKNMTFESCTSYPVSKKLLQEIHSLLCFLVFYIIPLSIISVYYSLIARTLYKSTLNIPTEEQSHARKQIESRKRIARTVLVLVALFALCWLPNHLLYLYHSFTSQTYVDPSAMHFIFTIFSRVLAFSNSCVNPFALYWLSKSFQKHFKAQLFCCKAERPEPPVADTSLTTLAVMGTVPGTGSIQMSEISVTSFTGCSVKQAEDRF

[2] = biological target: T2, Bombesin receptor subtype-3 (Mus musculus) (UniProt O54798); test: Agonistic activity at mouse BRS3 expressed in HEK293AEO cells at 10 uM by aequorin bioluminescence assay relative to dY peptide
T2 sequence (whole entry): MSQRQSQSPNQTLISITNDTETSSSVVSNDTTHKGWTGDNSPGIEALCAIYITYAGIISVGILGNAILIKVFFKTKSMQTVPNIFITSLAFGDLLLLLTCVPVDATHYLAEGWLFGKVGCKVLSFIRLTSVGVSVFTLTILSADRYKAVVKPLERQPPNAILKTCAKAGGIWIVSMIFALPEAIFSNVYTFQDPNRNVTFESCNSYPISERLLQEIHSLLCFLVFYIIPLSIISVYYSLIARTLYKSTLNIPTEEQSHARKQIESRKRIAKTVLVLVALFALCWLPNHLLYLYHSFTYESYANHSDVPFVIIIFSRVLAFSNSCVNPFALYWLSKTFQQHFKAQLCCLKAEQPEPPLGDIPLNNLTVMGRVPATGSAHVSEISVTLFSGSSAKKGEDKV

[3] = biological target: T3, Bombesin receptor subtype-3 (Homo sapiens) (UniProt P32247); test: Agonistic activity at human BRS3 expressed in HEK293AEO at 10 uM cells by aequorin bioluminescence assay relative to dY peptide
T3 sequence (whole entry): T1 sequence (P32247 whole entry)

[4] = biological target: T4, Bombesin receptor subtype-3 (Mus musculus, UniProt O54798); test: Agonistic activity at mouse BRS3 expressed in HEK293AEO cells by aequorin bioluminescence assay
T4 sequence (O54798 whole entry): T2 sequence (whole entry)

SMILES	EC50 [1] [nM]	Activity [2] [%]	Activity [3] [%]	EC50 [4] [nM]
N#Cc1cccc(Cc2cnc(CCc3ccc(-c4ccccc4C(=O)O)cc3)[nH]2)c1	812	102	95	20
O=C(O)c1ccccc1-c1ccc(CCc2ncc(Cc3cccc(Cl)c3)[nH]2)cc1	825	98	91	31
O=C(O)c1ccccc1-c1ccc(CCc2ncc(Cc3ccc(Cl)cc3)[nH]2)cc1	2290	105	89	102
CCCCc1cnc(CCCc2ccc(-c3ccccc3C(=O)O)cc2)[nH]1	5600	101	54	382
N#Cc1ccccc1Cc1cnc(CCc2ccc(-c3ccccc3C(=O)O)cc2)[nH]1	5480	139	51	642
O=C(O)c1ccccc1-c1ccc(CCc2nc(-c3ccccc3)c[nH]2)cc1	4950			872
Cc1ccc(Cc2cnc(CCc3ccc(-c4ccccc4C(=O)O)cc3)[nH]2)cc1	2660	120	88	162
COc1cccc(Cc2cnc(CCc3ccc(-c4ccccc4C(=O)O)cc3)[nH]2)c1	4120	80	73	79
COc1ccc(Cc2cnc(CCc3ccc(-c4ccccc4C(=O)O)cc3)[nH]2)cc1	5360	88	44	513
N#Cc1ccc(Cc2cnc(CCc3ccc(-c4ccccc4C(=O)O)cc3)[nH]2)cc1	5890	85	25	723
CCCCc1cnc(C(CCC)Cc2ccc(-c3ccccc3C(=O)O)cc2)[nH]1 (stereo not given)	1180	102	96	165
O=C(O)c1ccccc1-c1ccc(CCc2ncc(-c3ccccc3)[nH]2)cc1		101	30	
CCCCc1cnc(/C=C/c2ccc(-c3ccccc3C(=O)O)cc2)[nH]1	4380	39	8	10000
O=C(O)c1ccccc1-c1ccc(CCc2ncc(CC3CC3)[nH]2)cc1	1000	144	96	72
O=C(O)c1ccccc1-c1ccc(CCc2ncc(CCc3ccccc3)[nH]2)cc1	1320	89	86	174
Cc1cccc(Cc2cnc(CCc3ccc(-c4ccccc4C(=O)O)cc3)[nH]2)c1	4310	89	87	75
CCCCc1cnc(C(CCCC)Cc2ccc(-c3ccccc3C(=O)O)cc2)[nH]1 (stereo not given)	2660	96	66	527
O=C(O)c1ccccc1-c1ccc(CCc2ncc(Cc3ccc(F)cc3)[nH]2)cc1	1600	104	84	50
CC(C)(C)c1cnc(CCc2ccc(-c3ccccc3C(=O)O)cc2)[nH]1	4330	108	45	2740
COc1ccccc1Cc1cnc(CCc2ccc(-c3ccccc3C(=O)O)cc2)[nH]1	1720	101	88	163
CCCCc1cnc(Cc2ccc(-c3ccccc3C(=O)O)cc2)[nH]1	> 10000	0	0	> 10000
CCCCc1cnc(C(Cc2ccc(-c3ccccc3C(=O)O)cc2)C(C)C)[nH]1 (stereo not given)	4620	87	60	2240
CCCCc1cnc(C(C)Cc2ccc(-c3ccccc3C(=O)O)cc2)[nH]1 (stereo not given)	2760	110	79	184
CCCCc1cnc(C(CC)Cc2ccc(-c3ccccc3C(=O)O)cc2)[nH]1 (stereo not given)	2720	104	76	340

Next, values leading:

EC50 [1] [nM]	Activity [2] [%]	Activity [3] [%]	EC50 [4] [nM]	SMILES
119	111	112	10	CC(C)CCc1cnc(CCc2ccc(-c3ccccc3C(=O)O)cc2)[nH]1
642	101	94	33	O=C(O)c1ccccc1-c1ccc(CCc2ncc(CCC3CCCCC3)[nH]2)cc1
87	110	104	8	O=C(O)c1ccccc1-c1ccc(CCc2ncc(Cc3cccc(F)c3F)[nH]2)cc1
375	116	102	14.7	O=C(O)c1ccccc1-c1ccc(CCc2ncc(C3CCCCC3)[nH]2)cc1
39	99	102	6.2	CC(C)(C)CCc1cnc(CCc2ccc(-c3ccccc3C(=O)O)cc2)[nH]1
292	109	100	22	O=C(O)c1ccccc1-c1ccc(CCc2ncc(Cc3ccccc3Cl)[nH]2)cc1
25	94	101	9.6	CCC(C)(C)Cc1c[nH]c(CCc2ccc(-c3ccccc3C(=O)O)cc2)n1
41	102	104	7.3	O=C(O)c1ccccc1-c1ccc(CCc2ncc(CC3CCCCC3)[nH]2)cc1
205	111	109	11	O=C(O)c1ccccc1-c1ccc(CCc2ncc(Cc3ccccc3)[nH]2)cc1
177	121	108	9.5	O=C(O)c1ccccc1-c1ccc(CCc2ncc(Cc3ccccc3F)[nH]2)cc1
127	106	93	9.3	Cc1ccccc1Cc1cnc(CCc2ccc(-c3ccccc3C(=O)O)cc2)[nH]1
133	94	102	7.9	O=C(O)c1ccccc1-c1ccc(CCc2ncc(CC3CCCC3)[nH]2)cc1
76	116	97	30	CCC(C)(CC)Cc1cnc(CCc2ccc(-c3ccccc3C(=O)O)cc2)[nH]1
588	99	105	7.1	O=C(O)c1ccccc1-c1ccc(CCc2ncc(CC3CCC3)[nH]2)cc1
159	108	107	7.9	O=C(O)c1ccccc1-c1ccc(CCc2ncc(Cc3cccc(F)c3)[nH]2)cc1
88	102	106	5.7	O=C(O)c1ccccc1-c1ccc(CCc2ncc(CC3CCCCCC3)[nH]2)cc1
338	106	96	23	O=C(O)c1ccccc1-c1ccc(CCc2ncc(CC3CCOCC3)[nH]2)cc1
